Results as given in paper PMC7587962, “Evaluation of Cytotoxicity and α-Glucosidase Inhibitory Activity of Amide and Polyamino-Derivatives of Lupane Triterpenoids” (Molecules, 2020).

Experiments:
[1] = system: Colon Cancer subpanel; test: NCI-60 screen, subpanel Colon Cancer
[2] = system: Prostate cancer subpanel; test: NCI-60 screen, subpanel Prostate cancer
[3] = system: OVCAR-8; test: NCI-60 SRB screen: ovarian cancer OVCAR-8; type: cell-based, human
[4] = system: MOLT-4; test: NCI-60 SRB screen: leukemia MOLT-4; type: cell-based; conditions: Homo sapiens, MOLT-4, 48 h
[5] = system: DU-145; test: NCI-60 SRB screen: prostate cancer DU-145; type: cell-based, human
[6] = system: SN12C; test: NCI-60 SRB screen: renal cancer SN12C; type: cell-based, human
[7] = system: OVCAR-5; test: NCI-60 SRB screen: ovarian cancer OVCAR-5; type: cell-based, human
[8] = system: SNB-75; test: NCI-60 SRB screen: CNS cancer SNB-75; type: cell-based, human
[9] = system: HOP-92; test: NCI-60 SRB screen: non-small cell lung cancer HOP-92; type: cell-based, human
[10] = system: T-47D; test: NCI-60 SRB screen: breast cancer T-47D; type: cell-based, human
[11] = system: MCF7; test: NCI-60 SRB screen: breast cancer MCF7; type: cell-based; conditions: Homo sapiens, MCF7, 48 h
[12] = system: CCRF-CEM; test: NCI-60 SRB screen: leukemia CCRF-CEM; type: cell-based; conditions: Homo sapiens, 48 h
[13] = system: Ovarian Cancer subpanel; test: NCI-60 screen, subpanel Ovarian Cancer
[14] = system: RXF 393; test: NCI-60 SRB screen: renal cancer RXF 393; type: cell-based, human
[15] = system: HOP-62; test: NCI-60 SRB screen: non-small cell lung cancer HOP-62; type: cell-based, human
[16] = system: 786-0; test: NCI-60 SRB screen: renal cancer 786-0; type: cell-based, human
[17] = system: A498; test: NCI-60 SRB screen: renal cancer A498; type: cell-based, human
[18] = system: SK-OV-3; test: NCI-60 SRB screen: ovarian cancer SK-OV-3; type: cell-based, human
[19] = system: OVCAR-4; test: NCI-60 SRB screen: ovarian cancer OVCAR-4; type: cell-based; conditions: Homo sapiens, OVCAR-4, 48 h
[20] = system: BT-549; test: NCI-60 SRB screen: breast cancer BT-549; type: cell-based, human
[21] = system: CAKI-1; test: NCI-60 SRB screen: renal cancer CAKI-1; type: cell-based, human
[22] = system: SF-295; test: NCI-60 SRB screen: CNS cancer SF-295; type: cell-based, human
[23] = system: TK-10; test: NCI-60 SRB screen: renal cancer TK-10; type: cell-based, human
[24] = system: UACC-257; test: NCI-60 SRB screen: melanoma UACC-257; type: cell-based, human
[25] = system: MALME-3M; test: NCI-60 SRB screen: melanoma MALME-3M; type: cell-based, human
[26] = system: HS 578T; test: NCI-60 SRB screen: breast cancer HS 578T; type: cell-based, human
[27] = system: M14; test: NCI-60 SRB screen: melanoma M14; type: cell-based, human
[28] = system: RPMI-8226; test: NCI-60 SRB screen: leukemia RPMI-8226; type: cell-based; conditions: Homo sapiens, RPMI-8226, 48 h
[29] = system: NCI-H226; test: NCI-60 SRB screen: non-small cell lung cancer NCI-H226; type: cell-based, human
[30] = system: NCI/ADR-RES; test: NCI-60 SRB screen: ovarian cancer NCI/ADR-RES; type: cell-based, human
[31] = system: SR; test: NCI-60 SRB screen: leukemia SR; type: cell-based; conditions: Homo sapiens, 48 h
[32] = system: EKVX; test: NCI-60 SRB screen: non-small cell lung cancer EKVX; type: cell-based, human
[33] = system: SK-MEL-28; test: NCI-60 SRB screen: melanoma SK-MEL-28; type: cell-based, human
[34] = system: NCI-H322M; test: NCI-60 SRB screen: non-small cell lung cancer NCI-H322M; type: cell-based, human
[35] = system: U251; test: NCI-60 SRB screen: CNS cancer U251; type: cell-based; conditions: Homo sapiens, U-251, 48 h
[36] = read-out: Percentage Cell Growth

C=C(C)[C@@H]1CC[C@]2(C(N)=O)CC[C@]3(C)[C@H](CC[C@@H]4[C@@]5(C)CC[C@H](O)C(C)(C)[C@@H]5CC[C@]43C)[C@@H]12 [Compound 5]
MID b, average sensitivity of all cell line of particular subpanel [1]: 3.21 µM | Selectivity, ratio MID a: MID b [1]: 1.14 | MID b, average sensitivity of all cell line of particular subpanel [2]: 3.02 µM | Selectivity, ratio MID a: MID b [2]: 1.22 | GI50 ([3]; Homo sapiens, OVCAR-8, 48 h): 3.12 µM | Percentage Cell Growth ([3]; OVCAR-8, single dose 10 µM): −64.82% | GI50 [4]: 3.43 µM | activity at 10 µM [4, 36]: 1.86% | Percentage Cell Growth ([5]; DU-145, single dose 10 µM): −32.96% | GI50 ([5]; Homo sapiens, DU-145, 48 h): 3.21 µM | GI50 ([6]; Homo sapiens, 48 h): 3 µM | Percentage Cell Growth ([6]; single dose 10 µM): −45.76% | GI50 ([7]; Homo sapiens, OVCAR-5, 48 h): 3.78 µM | Percentage Cell Growth ([7]; OVCAR-5, single dose 10 µM): −21.57% | GI50 ([8]; Homo sapiens, SNB-75, 48 h): 2.74 µM | Percentage Cell Growth ([8]; SNB-75, single dose 10 µM): −39.09% | Percentage Cell Growth ([9]; HOP-92, single dose 10 µM): −62.83% | GI50 ([9]; Homo sapiens, HOP-92, 48 h): 2.69 µM | GI50 ([10]; Homo sapiens, T47D, 48 h): 4.55 µM | Percentage Cell Growth ([10]; T-47D, single dose 10 µM): −24.75% | GI50 [11]: 2.91 µM | activity at 10 µM [11, 36]: -12.5% | GI50 [12]: 4.49 µM | activity at 10 µM [12, 36]: 3.11% | MID b, average sensitivity of all cell line of particular subpanel [13]: 3.88 µM | Selectivity, ratio MID a: MID b [13]: 0.95 | GI50 ([14]; Homo sapiens, RXF 393, 48 h): 2.1 µM | Percentage Cell Growth ([14]; RXF 393, single dose 10 µM): −49.35% | Percentage Cell Growth ([15]; HOP-62, single dose 10 µM): −72.18% | GI50 ([15]; Homo sapiens, HOP-62, 48 h): 3.21 µM | Percentage Cell Growth ([16]; 786-0, single dose 10 µM): −72.16% | GI50 ([16]; Homo sapiens, 786-0, 48 h): 2.03 µM | Percentage Cell Growth ([17]; A498, single dose 10 µM): −28.33% | GI50 ([17]; Homo sapiens, A498, 48 h): 12.2 µM | GI50 ([18]; Homo sapiens, SK-OV-3, 48 h): 8.18 µM | Percentage Cell Growth ([18]; SK-OV-3, single dose 10 µM): −45.72% | GI50 [19]: 3.54 µM | Percentage Cell Growth ([20]; BT-549, single dose 10 µM): −21.60% | GI50 ([20]; Homo sapiens, BT-549, 48 h): 3.99 µM | Percentage Cell Growth ([21]; CAKI-1, single dose 10 µM): −64.30% | GI50 ([21]; Homo sapiens, CAKI-1, 48 h): 1.98 µM | GI50 ([22]; Homo sapiens, SF-295, 48 h): 3.39 µM | Percentage Cell Growth ([22]; SF-295, single dose 10 µM): −57.70% | GI50 ([23]; Homo sapiens, TK-10, 48 h): 2.79 µM | Percentage Cell Growth ([23]; TK-10, single dose 10 µM): −69.84% | GI50 ([24]; Homo sapiens, UACC-257, 48 h): 13.2 µM | Percentage Cell Growth ([24]; UACC-257, single dose 10 µM): −6.08% | GI50 ([25]; Homo sapiens, Malme-3M, 48 h): 2.39 µM | Percentage Cell Growth ([25]; MALME-3M, single dose 10 µM): −57.05% | Percentage Cell Growth ([26]; HS 578T, single dose 10 µM): −1.70% | GI50 ([26]; Homo sapiens, Hs-578T, 48 h): 5.74 µM | GI50 ([27]; Homo sapiens, M14, 48 h): 6.05 µM | Percentage Cell Growth ([27]; M14, single dose 10 µM): 8.80% | GI50 [28]: 3.53 µM | activity at 10 µM [28, 36]: -19.8% | GI50 ([29]; Homo sapiens, NCI-H226, 48 h): 4.11 µM | Percentage Cell Growth ([29]; NCI-H226, single dose 10 µM): −50.47% | GI50 ([30]; Homo sapiens, 48 h): 3.17 µM | Percentage Cell Growth ([30]; single dose 10 µM): −8.91% | GI50 [31]: 4.14 µM | activity at 10 µM [31, 36]: 15.5% | GI50 ([32]; Homo sapiens, 48 h): 2.96 µM | Percentage Cell Growth ([32]; single dose 10 µM): −10.31% | GI50 ([33]; Homo sapiens, SK-MEL-28, 48 h): 1.09 µM | Percentage Cell Growth ([33]; SK-MEL-28, single dose 10 µM): 0.38% | GI50 ([34]; Homo sapiens, 48 h): 2.59 µM | Percentage Cell Growth ([34]; single dose 10 µM): −58.91% | GI50 [35]: 2.54 µM | activity at 10 µM [35, 36]: -69.3%
